The test has as its target T1, human GnRH receptor (Homo sapiens, UniProt P30968).
T1 construct: expressed in transfected cells; host or cells: HEK 293 (hGnRH-R/293, from Dr. Stuart Sealfon)
T1 sequence (P30968 1-328): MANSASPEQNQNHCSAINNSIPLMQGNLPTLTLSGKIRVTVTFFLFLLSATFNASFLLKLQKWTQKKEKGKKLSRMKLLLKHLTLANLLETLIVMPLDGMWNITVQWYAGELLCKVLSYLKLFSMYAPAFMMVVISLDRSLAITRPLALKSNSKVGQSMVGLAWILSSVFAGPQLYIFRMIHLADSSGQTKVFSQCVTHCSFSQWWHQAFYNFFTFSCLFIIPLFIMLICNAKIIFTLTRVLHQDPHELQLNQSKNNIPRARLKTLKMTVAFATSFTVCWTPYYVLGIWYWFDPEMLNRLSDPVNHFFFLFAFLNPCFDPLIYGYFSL
In words: Radioligand binding, 125I-GnRH-A displacement, membranes of HEK 293 cells with human GnRH receptor. The procedure: All compounds were diluted in 1% DMSO (final assay concentration) in binding assay buffer. […] Reactions were terminated by rapid filtration onto 96-well Packard GF/C filters soaked in 0.1% polyethyleneimine. Filters were washed three times with PBS buffer, dried and counted on a Packard Topcount by liquid scintillation counting.
Assay conditions were identical for assessing compound activities at other species. […] IC50 values for control peptides and test compounds were calculated utilizing GraphPad Prism™ software.
Crude compounds were tested using the competitive radioligand binding assay described above.
The reaction mixture was vortexed and incubated for 1 min at room temperature. After one min, the mixture was vortexed and allowed to incubate for an additional minute. 2 ml of 0.5 M acetic acid/1% BSA was added to the reaction tube and the mixture was added to a C18 Sep-Pak cartridge. The cartridge was washed with subsequent washes of 5 ml H2O and 5 ml 0.5M acetic acid and then eluted with 5×1 ml of 60% CH3CN/40% 0.5M acetic acid. The eluate was diluted with 3× volume of HPLC buffer A (0.1% TFA in H2O) and loaded onto a C18 column. The iodinated product was eluted over 20-25 min with a gradient of 25-100% CH3CN containing 0.1% TFA. The radioactive fractions (750 ed/fraction) are collected into clean polypropylene tubes containing 100 μl of 10% BSA. Fractions were assessed for biological activity by radioligand binding.
S%R is the substrate remaining.

Setting [1] is: 1 uM, read-out: % Inhib. @ 1 uM hGnRH.
The mark [2] stands for this setting: 1 h, repeat of % Inhib. at 1 uM, read-out: Repeats @ 1 uM hGnRH.

Like-named read-outs stand apart in the source and are kept apart here.

Regarding `Cc1cc2c(cc1Cc1ccc(C(=O)N3CCN(c4cccc(C(F)(F)F)c4)CC3)o1)C(C)(C)CCC2(C)C`, the inhibition at 1 µM was -25% under setting [1] and 3% under setting [2].
Regarding `CCOC(=O)N1CCC(NC(=O)c2ccc(Cc3cc4c(cc3C)C(C)(C)CCC4(C)C)o2)CC1`, the inhibition at 1 µM was 15% under setting [1] and 16% under setting [2].
On to `Cc1cc2c(cc1Cc1ccc(C(=O)NCCc3ccc(O)cc3)o1)C(C)(C)CCC2(C)C`, for which the inhibition at 1 µM worked out at 19% under setting [1] and 29% under setting [2].
For `Cc1cc2c(cc1Cc1ccc(C(=O)NCCc3cccc(Cl)c3)o1)C(C)(C)CCC2(C)C`, the inhibition at 1 µM came to 15% under setting [1] and 21% under setting [2].
Consider `Cc1cc2c(cc1Cc1ccc(C(=O)NCCN(C)C)o1)C(C)(C)CCC2(C)C`, for which the inhibition at 1 µM is -4% under setting [1] and -7% under setting [2].
With `Cc1cc2c(cc1Cc1ccc(C(=O)NCc3ccc(C(F)(F)F)cc3)o1)C(C)(C)CCC2(C)C`, the inhibition at 1 µM by setting is: under setting [1], 40%; under setting [2], 41%.
With `Cc1cc2c(cc1Cc1ccc(C(=O)N3CCN(c4cccc(Cl)c4)CC3)o1)C(C)(C)CCC2(C)C`, the inhibition at 1 µM reads like this: under setting [1], -22%; under setting [2], 9%.
For the compound `Cc1cc2c(cc1Cc1ccc(C(=O)N3CCN(c4ccc(Cl)c(Cl)c4)CC3)o1)C(C)(C)CCC2(C)C`, the inhibition at 1 µM by setting is: under setting [1], -20%; under setting [2], -7%.
As for `Cc1cc2c(cc1Cc1ccc(C(=O)N3CCN(c4ccc(F)cc4)CC3)o1)C(C)(C)CCC2(C)C`, the inhibition at 1 µM reads like this: under setting [1], -24%; under setting [2], 9%.
The like results for `Cc1cc2c(cc1Cc1ccc(C(=O)N3CCN(c4ccc([N+](=O)[O-])cc4)CC3)o1)C(C)(C)CCC2(C)C` were, in that order, -18% and 6%.
`Cc1cc2c(cc1Cc1ccc(C(=O)N3CCN(c4ccccc4F)CC3)o1)C(C)(C)CCC2(C)C`: the inhibition at 1 µM was 24% under setting [1] and 3% under setting [2].
In the case of `Cc1cc2c(cc1Cc1ccc(C(=O)NC3COC(C)(C)O[C@H]3c3ccccc3)o1)C(C)(C)CCC2(C)C` (some centres unmarked), the inhibition at 1 µM under setting [1] was -6% and the inhibition at 1 µM under setting [2] was 0%.
The like results for `Cc1cc2c(cc1Cc1ccc(C(=O)NCc3cc(Cl)ccc3Cl)o1)C(C)(C)CCC2(C)C` were, in that order, 26% and 34%.
As to `Cc1cc2c(cc1Cc1ccc(C(=O)NCCc3c(Cl)cccc3Cl)o1)C(C)(C)CCC2(C)C`, the inhibition at 1 µM by setting is: under setting [1], -40%; under setting [2], 17%.
In the same order, the values of `Cc1cc2c(cc1Cc1ccc(C(=O)NCc3cccc(C(F)(F)F)c3)o1)C(C)(C)CCC2(C)C` are -6% and 16%.
For `Cc1cc2c(cc1Cc1ccc(C(=O)NCCSc3cc(C(F)(F)F)nc4ccccc34)o1)C(C)(C)CCC2(C)C`, the inhibition at 1 µM under setting [1] was -18% and the inhibition at 1 µM under setting [2] was found to be 5%.
In the same order, the values of `Cc1cc2c(cc1Cc1ccc(C(=O)NCc3c(Cl)cccc3Oc3ccccc3)o1)C(C)(C)CCC2(C)C` are -10% and -15%.
The like results for `Cc1cc2c(cc1Cc1ccc(C(=O)NC3c4ccccc4CC3O)o1)C(C)(C)CCC2(C)C` (centres unmarked) were, in that order, -11% and -29%.
On to `Cc1cc2c(cc1Cc1ccc(C(=O)N3CCN(c4ccc(C(F)(F)F)cc4[N+](=O)[O-])CC3)o1)C(C)(C)CCC2(C)C`, for which the inhibition at 1 µM is -20% under setting [1] and -21% under setting [2].
In the same order, the values of `Cc1cc2c(cc1Cc1ccc(C(=O)N3CCN(c4ncccc4C(F)(F)F)CC3)o1)C(C)(C)CCC2(C)C` are -16% and -29%.
In the same order, the values of `Cc1cc2c(cc1Cc1ccc(C(=O)N3CCN(c4ccc(C(F)(F)F)cn4)CC3)o1)C(C)(C)CCC2(C)C` are -4% and -7%.
In the same order, the values of `Cc1cc2c(cc1Cc1ccc(C(=O)N3CCCCC3c3ccccc3)o1)C(C)(C)CCC2(C)C` (centres unmarked) are -19% and -22%.
`Cc1cc2c(cc1Cc1ccc(C(=O)N3CCN(c4ccncc4)CC3)o1)C(C)(C)CCC2(C)C`: the inhibition at 1 µM reads like this: under setting [1], -4%; under setting [2], 11%.
In the same order, the values of `Cc1cc2c(cc1Cc1ccc(C(=O)N3CCN(c4cnccn4)CC3)o1)C(C)(C)CCC2(C)C` are 3% and 7%.
Consider `Cc1cc2c(cc1Cc1ccc(C(=O)N3CCN(c4ccccc4[N+](=O)[O-])CC3)o1)C(C)(C)CCC2(C)C`, for which the inhibition at 1 µM runs as follows: under setting [1], -15%; under setting [2], -20%.
The like results for `Cc1cc2c(cc1Cc1ccc(C(=O)N3CCN(c4ccccc4C#N)CC3)o1)C(C)(C)CCC2(C)C` were, in that order, -5% and 62%.
For the compound `Cc1cc2c(cc1Cc1ccc(C(=O)NC(C)c3ccc(O)cc3)o1)C(C)(C)CCC2(C)C` (centres unmarked), the inhibition at 1 µM by setting is: under setting [1], -10%; under setting [2], -9%.
In the same order, the values of `Cc1cc2c(cc1Cc1ccc(C(=O)NCc3ccc(F)c(C(F)(F)F)c3)o1)C(C)(C)CCC2(C)C` are 11% and 16%.
As to `Cc1cc2c(cc1Cc1ccc(C(=O)N3CCN(c4ccc(O)cc4)CC3)o1)C(C)(C)CCC2(C)C`, the inhibition at 1 µM reads like this: under setting [1], -12%; under setting [2], -6%.
Take `Cc1cc2c(cc1Cc1ccc(C(=O)NCc3ccc(Cl)c(C(F)(F)F)c3)o1)C(C)(C)CCC2(C)C`: the inhibition at 1 µM reads like this: under setting [1], 15%; under setting [2], 19%.
As for `CCN(Cc1cc([N+](=O)[O-])ccc1O)C(=O)c1ccc(Cc2cc3c(cc2C)C(C)(C)CCC3(C)C)o1`, the inhibition at 1 µM is -11% under setting [1] and -5% under setting [2].
`Cc1cc2c(cc1Cc1ccc(C(=O)N3CCN(c4ccc(Cl)cc4)CC3)o1)C(C)(C)CCC2(C)C`: the inhibition at 1 µM was -11% under setting [1] and -17% under setting [2].
For the compound `Cc1cc2c(cc1Cc1ccc(C(=O)N3CCN(c4ccccc4Cl)CC3)o1)C(C)(C)CCC2(C)C`, the inhibition at 1 µM runs as follows: under setting [1], -1%; under setting [2], -7%.
Turning to `CCN(CCNC(=O)c1ccc(Cc2cc3c(cc2C)C(C)(C)CCC3(C)C)o1)c1cccc(C)c1`, the inhibition at 1 µM under setting [1] is 2% and the inhibition at 1 µM under setting [2] is 21%.
As to `Cc1cc2c(cc1Cc1ccc(C(=O)N(C)CCc3ccccc3)o1)C(C)(C)CCC2(C)C`, the inhibition at 1 µM is, setting by setting: under setting [1], 10%; under setting [2], 9%.
With `Cc1cc2c(cc1Cc1ccc(C(=O)N(Cc3ccccc3F)C3CCN(Cc4ccccc4)C3)o1)C(C)(C)CCC2(C)C` (centres unmarked), the inhibition at 1 µM amounted to 7% under setting [1] and 9% under setting [2].
As for `Cc1cc2c(cc1Cc1ccc(C(=O)NC3Cc4ccccc4C3)o1)C(C)(C)CCC2(C)C`, the inhibition at 1 µM is 11% under setting [1] and 15% under setting [2].
Turning to `Cc1cc2c(cc1Cc1ccc(C(=O)N(CCC3CCCN3C)Cc3ccc(Cl)cc3)o1)C(C)(C)CCC2(C)C` (centres unmarked), the inhibition at 1 µM under setting [1] is -22% and the inhibition at 1 µM under setting [2] is -4%.
The like results for `Cc1cc2c(cc1Cc1ccc(C(=O)N(CCCO)Cc3ccccc3[N+](=O)[O-])o1)C(C)(C)CCC2(C)C` were, in that order, -5% and 6%.
The like results for `Cc1cc2c(cc1Cc1ccc(C(=O)NCCc3ccc(Cl)c(Cl)c3)o1)C(C)(C)CCC2(C)C` were, in that order, -5% and 8%.

Values taken from US7101878B1 (Agouron Pharmaceuticals, Inc., priority 1998, dated 2006).
